Measurements as given in ChEMBL document CHEMBL2331134, “Design and synthesis of 3,5-diaryl-4,5-dihydro-1H-pyrazoles as new tyrosinase inhibitors” (Bioorg Med Chem, 2013).
Active and inactive are the calls of the source. The rule behind the calls is not given here.

Columns and labels:
[1] = target: T1, Tyrosinase (Agaricus bisporus) (UniProt O42713); experiment: Competitive inhibition of mushroom tyrosinase assessed as reduction in L-DOPA oxidation by Lineweaver-Burk plot
T1 sequence (whole entry): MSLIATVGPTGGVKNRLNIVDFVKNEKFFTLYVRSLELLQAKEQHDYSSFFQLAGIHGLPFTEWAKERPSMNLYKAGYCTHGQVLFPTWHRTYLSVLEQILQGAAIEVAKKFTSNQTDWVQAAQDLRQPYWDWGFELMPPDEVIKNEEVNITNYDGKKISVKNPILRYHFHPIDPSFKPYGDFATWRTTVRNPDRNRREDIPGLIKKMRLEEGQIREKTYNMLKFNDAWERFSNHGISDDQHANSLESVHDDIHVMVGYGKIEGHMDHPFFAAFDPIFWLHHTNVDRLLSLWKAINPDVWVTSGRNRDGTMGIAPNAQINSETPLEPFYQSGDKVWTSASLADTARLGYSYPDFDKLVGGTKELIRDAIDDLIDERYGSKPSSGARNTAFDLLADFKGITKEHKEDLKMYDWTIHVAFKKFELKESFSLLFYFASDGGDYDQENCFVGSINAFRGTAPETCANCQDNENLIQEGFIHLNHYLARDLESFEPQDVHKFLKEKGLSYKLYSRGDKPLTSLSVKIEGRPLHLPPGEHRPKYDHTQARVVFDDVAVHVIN

[2] = target: T2, Tyrosinase (Agaricus bisporus, UniProt O42713)
T2 sequence (O42713 whole entry): T1 sequence (whole entry)
Description: Inhibition of mushroom tyrosinase assessed as reduction in diphenolase activity using L-DOPA substrate pre-incubated for 20 mins at 30 degC

SMILES | inhibition [1] | IC50 [2]
COc1cc(C2CC(c3ccc(O)cc3O)=NN2C(C)=O)ccc1O (stereo unspecified) | Active | 0.301 µM
O=C(OCc1ccc(O)cc1)c1ccc(O)cc1O | Active | 
CC(=O)N1N=C(c2ccc(O)cc2O)CC1c1ccc(O)c([N+](=O)[O-])c1 (stereo unspecified) |  | > 200 µM
CC(=O)N1N=C(c2ccccc2O)CC1c1ccc(O)c(O)c1 (stereo unspecified) |  | > 200 µM
O=C(/C=C/c1ccc(O)cc1O)c1ccc(O)cc1O | Active | 
COc1cc(C2CC(c3ccc(O)cc3O)=NN2)ccc1O (stereo unspecified) |  | 2.43 µM
CC(=O)N1N=C(c2ccc(O)cc2O)CC1c1ccc(O)cc1 (stereo unspecified) | Active | 1.69 µM
COc1cc(C2CC(c3ccc(O)cc3)=NN2C(C)=O)ccc1O (stereo unspecified) |  | > 200 µM
O=C1CC(c2ccc(O)cc2O)Oc2cc(O)cc(O)c21 (stereo unspecified) | Active | 
CC(=O)N1N=C(c2ccccc2O)CC1c1ccc(O)cc1 (stereo unspecified) |  | 13.1 µM
CC(=O)N1N=C(c2ccc(O)cc2)CC1c1cccc(O)c1 (stereo unspecified) |  | 147 µM
CC(=O)N1N=C(c2cc(O)cc(O)c2)CC1c1cccc(O)c1 (stereo unspecified) |  | > 200 µM
CC(=O)N1N=C(c2ccc(O)cc2)CC1c1ccc(O)c(O)c1 (stereo unspecified) |  | 1.07 µM
O=c1cc(-c2ccc(O)cc2O)oc2cc(O)cc(O)c12 [NORARTOCARPETIN] |  | > 200 µM
Oc1cccc(C2CC(c3ccc(O)cc3O)=NN2)c1 (stereo unspecified) | Active | 0.837 µM
CC(=O)N1N=C(c2ccccc2O)CC1c1cccc(O)c1 (stereo unspecified) |  | > 200 µM
CC(=O)N1N=C(c2cc(O)cc(O)c2)CC1c1ccc(O)cc1 (stereo unspecified) |  | 161 µM
COc1cc(OC)cc(-c2nc(-c3ccc(O)cc3O)cs2)c1 |  | 2 µM
COc1cc(O)ccc1C1CC(c2ccccc2O)=NN1C(C)=O (stereo unspecified) |  | > 200 µM
CC(=O)N1N=C(c2ccc(O)cc2O)CC1c1ccc(O)c(O)c1 (stereo unspecified) | Active | 2.74 µM
COc1cc(C2CC(c3ccccc3O)=NN2C(C)=O)ccc1O (stereo unspecified) |  | 13.4 µM
CC(=O)N1N=C(c2ccc(O)cc2O)CC1c1cccc(O)c1 (stereo unspecified) | Active | 0.863 µM
Oc1ccc(C2CC(c3ccc(O)cc3O)=NN2)cc1 (stereo unspecified) | Active | 0.882 µM
Oc1ccc(C2CC(c3ccccc3O)=NN2)cc1 (stereo unspecified) |  | 11.8 µM
CC(=O)N1N=C(c2ccc(O)cc2)CC1c1ccc(O)cc1 (stereo unspecified) |  | 3.51 µM
